Data set [1] concerns SNU—C4 3xFLAG-PXR KI cells. In words: Cytotoxicity assay (CellTiter-Glo, 72 h). The class given is cell-based, human. As to conditions: SNU—C4 3xFLAG-PXR KI cells, 72 h, FIG. 7A; read-out: half maximal cytotoxic concentration (CC50). As to the method:
(§1) The indicated cells (2.5×10^3/well in 40 μL RPMI with 10% FBS) were plated in the 384-well plates, resulting in 0.5% DMSO and the indicated concentrations of chemicals. After 72 h compound treatment, the CellTiter-Glo Luminescent Cell Viability Assay (Promega) and an EnVision microplate reader were used to assess cytotoxicity. Wells containing DMSO alone or 10 μM staurosporine served as negative and positive controls, respectively. The percent cell viability for each well was calculated using equation 1: […]

Data set [2] relates to SNU—C4 3xFLAG-PXR KI cell lines stably expressing HA-tagged GSPT1^G575N. In words: Cytotoxicity assay in cells overexpressing degradation-resistant GSPT1 mutant. It is filed as cell-based, human. As to conditions: FIG. 7B-C. As to the method: Complete information for all plasmids is included in Table 1 below. […] Lentiviruses for pCDH-GSPT1 or pCDH-GSPT1^G575N were generated in 293T cells using psPAX2 and pMD2.G packaging vectors. The packaging vectors were gifts from Dr. Didier Trono (Addgene plasmid #12259 and 12260).
as §1

The next data set concerns the target T1, PXR (Homo sapiens, UniProt O75469).
T1 sequence (O75469 1-434): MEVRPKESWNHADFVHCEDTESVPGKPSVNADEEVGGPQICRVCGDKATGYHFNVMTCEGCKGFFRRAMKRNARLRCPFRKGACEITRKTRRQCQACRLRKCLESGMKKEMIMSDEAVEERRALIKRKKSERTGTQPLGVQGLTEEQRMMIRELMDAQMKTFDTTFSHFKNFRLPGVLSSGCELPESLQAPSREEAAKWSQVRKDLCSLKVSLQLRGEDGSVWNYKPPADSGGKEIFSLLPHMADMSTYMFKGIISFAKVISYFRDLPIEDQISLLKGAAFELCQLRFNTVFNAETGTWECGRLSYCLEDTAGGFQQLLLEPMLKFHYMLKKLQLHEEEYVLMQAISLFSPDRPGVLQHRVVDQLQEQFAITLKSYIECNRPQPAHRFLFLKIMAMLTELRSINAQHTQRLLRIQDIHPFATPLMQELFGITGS
In words: Western blot of endogenous 3xFLAG-PXR protein in SNU—C4 3xFLAG-PXR KI cells. It is filed as cell-based. More on the design: To assess SJPYT-195 activity against endogenous PXR, CRISPR-Cas9 was used; endogenous in cells. As to conditions: western blot, SNU—C4 3xFLAG-PXR KI cells. The method, then: The following day, DMSO or compounds were added to result in 0.5% DMSO and the indicated compound concentrations, and cells were incubated for the indicated time points. Cells were lysed and subjected to western blotting as above using antibodies against FLAG (Sigma-Aldrich, cat. #F3165, 1:2,000 dilution), GSPT1 (Abcam, cat. #ab126090, 1:4,000 dilution), and R-Actin (Cell Signaling Technology, cat. #4967, 1:2,000 dilution).

Molecules are shown by their SMILES.

Here are results for one molecule from patent US20260116867A1, “PROTEOLYSIS TARGETING CHIMERAS FOR HUMAN PREGNANE X RECEPTOR AND FOR DEGRADATION OF GSPT1” (ST. JUDE CHILDREN'S RESEARCH HOSPITAL, priority 2022, published 2026).

In the case of `Cc1ccc(NC(=O)NCc2ccc3c(c2)CN(C2CCC(=O)NC2=O)C3=O)cc1Cl` (stereo not drawn) [CC-885, reference compound], the CC50 in data set [1] is 3.3 ± 0.3 nM. Also, in data set [2], the “cytotoxicity in cells overexpressing GSPT1^G575N” value is reported as “partially resistant”. The “PXR protein level (in words)” value on PXR is given as “also reduced PXR protein”.
